Values quoted from earlier work in paper PMC12382740, “In Vitro and In Vivo Characterization of Novel Cathelicidin-Based Peptides with Antimicrobial Activity Against Pseudomonas aeruginosa” (Antibiotics, 2025).

Legend:
HeLa cells = tested on: HeLa cells; design: method as in PMID 26114809; conditions: read-out: IC50 against HeLa cells; cited from earlier work
erythrocytes = tested on: erythrocytes; design: method as in PMID 26114809; conditions: at 64 mg/L ref 58; cited from earlier work

Which IC50 (HeLa cells) does the source give for mastoparan here?
Its IC50 is 32 µM.

And the hemolysis (erythrocytes)?
The hemolysis was 6.6%.

Which IC50 (HeLa cells) does the source give for H-inlkalaalakkil-NH2 here?
Its IC50 is 10 µM.
